According to paper PMC8389655, “Au2phen and Auoxo6, Two Dinuclear Oxo-Bridged Gold(III) Compounds, Induce Apoptotic Signaling in Human Ovarian A2780 Cancer Cells” (Biomedicines, 2021):

Experiments:
caspase-9 = assay: FAM-FLICA caspase-9 activation, flow cytometry; type: cell-based, human; details: A2780, 72 h at 72 h IC50 dose, compared to controls
Procedure: (§1) In addition, caspase-3, caspase-8, and caspase-9 activation was assessed in treated and untreated cells. Likewise, cells were trypsinized, washed with PBS, and suspended in FAM-FLICATM caspase solution (FAM-DEVD-FMK caspase FLICA kit, ImmunoChemistry Technologies, MN 55431 USA) for 30 min at 37 °C. Cells were then washed twice with PBS and analyzed using a FACSCantoII flow cytometer (BD Biosciences, New Jersey, USA).

ASK1 = assay: Western blot of phospho(Thr838)-ASK1 and total ASK1; type: cell-based, human; details: A2780, 24 h at 72 h IC50 dose, vs controls
Procedure: (§2) After drug treatments, cells were lysed in RIPA buffer supplemented with a cocktail of protease and phosphatase inhibitors. […] To favor the electrophoretic separation, 25% sample loading buffer (SLB) was added to the cell lysates. Here, 20 µg samples of proteins from controls and treated cells were loaded on 4–20% pre-cast SDS-PAGE gels and blotted onto PVDF membranes. Primary antibodies Bcl-2 (1:1000 dilution,#sc-7382, Santa Cruz, Dallas, Texas USA), Bax (1:1000 dilution, #sc-493, Santa Cruz), OXPHOS cocktail (1:1000 dilution, #ab110413, AbCam, Cambridge, UK), citrate synthase (1:1000 dilution, #sc-515640, Santa Cruz), ASK1 (1:1000 dilution, #sc-390275, Santa Cruz), phospho(Thr838)-ASK1 (1:1000 dilution, #CPA6042, Cohesion Biosciences, London, UK), AKT (1:1000 dilution, #sc-5298, Santa Cruz), and phospho(Ser473)-AKT (1:1000 dilution, #GTX128414, GeneTex, Irvine, CA, USA) were added to 2% non-fat dry milk in PBS-tween solution, while PVDF membranes were incubated overnight at 4 °C. Then, membranes were treated with horseradish peroxidase (HRP)-conjugated secondary antibodies (1:5000 dilution, Santa Cruz) and immunoreactive bands were detected with an ECL kit detection system on an Amersham Imager 600 (GE Healthcare, Chicago, IL, USA). For the quantification, a densitometric analysis of the bands was performed using ImageJ2 software version 2.0.0-rc-64 [23]. The intensities of the immunostained bands were normalized on the Coomassie brilliant blue R-250-stained total protein from the same PVDF membrane.

[1] = test system: PNT1 (human normal prostate epithelium) cells; assay: MTT antiproliferative assay on PNT1 cells; type: cell-based; details: for IC50: 72 h of treatment, MTT assay, mean ± SD of three experiments, read-out: Half-maximal inhibitory concentration (IC50), PNT1; for IC50 for PNT1 higher than for A2780 (fold): ratio of 72 h IC50 PNT1 / A2780
Procedure: (§3) The inhibition of cell proliferation by Au2phen, Auoxo6, and AuL12 on A2780 cell line was evaluated through MTT (3-(4,5-dimethylthiazol-2-yl)-2,5-diphenyltetrazolium bromide) test. Viable cells can convert MTT into formazan, which is coloured and detectable at 595 nm. Exponentially growing cells were seeded in 96 well-microplates at a density of 8 × 10^3 for 24 h and then gold compounds were added in fresh RPMI medium at concentrations ranging from 0.003 to 100 µM and incubated for 72 h. On the day of the test, cells were treated with 0.5 mg/mL MTT for 1 h at 37 °C. Following precipitation, blue formazan was dissolved in DMSO, and the optical density was read in a microplate reader interfaced with Microplate Manager/PV version 4.0 software (BioRad Laboratories, Hercules, USA). From the absorbance measurements, the half-maximal inhibitory concentration (IC50) value of each compound on A2780 cells was calculated using GraphPad Prism software version 6.0 (Graphpad Holdings, LLC, USA). The same protocol was applied on non-tumor cell lines, i.e., HEK and PNT1 cells.

caspase-3 = assay: FAM-FLICA caspase-3 activation, flow cytometry; type: cell-based, human; details: A2780, 72 h at 72 h IC50 dose, compared to controls
Procedure: as §1

[2] = test system: complex I-driven mitochondrial respiration; assay: Respiratory control ratio, complex I-driven respiration in permeabilized cells; type: cell-based, human; details: permeabilized A2780, 24 h treatment; control about 3.1
Procedure: The analysis of the oxygen consumption rate (OCR) was performed using a Clark-type O2 electrode inserted in a thermostated airtight chamber (Oxygraph Plus System, Hansatech Instruments, King’s Lynn, Norfolk, UK). Briefly, control and treated cells (12 and 24 h) were trypsinized, washed with PBS, and suspended in culture medium to measure the steady state OCR for 10 min. The OCR values, expressed as nmol of consumed O2/mL/min, were normalized to the cellular protein content. To evaluate the response of complex I, complex II/III, and ATP-synthase-driven OCRs in the presence or absence of gold-treatment, we used the protocol described by Baracca et al.. Cells were trypsinized, washed, and resuspended in buffer containing sucrose, TRIS-HCl, MgSO4, EDTA, and KH2PO4. Cell suspension was treated with digitonin to allow cell membrane permeabilization. To stimulate complex I, 250 mM glutamate/malate was added, whereas to stimulate complex II, 250 mM succinate was added (state 2 respiration). Then, to induce ATP-synthase-driven mitochondrial respiration, 10 mM ADP was added (state 3 respiration). To estimate the mitochondrial respiratory capacity, defined as the respiratory control ratio (RCR), state 3/state 2 ratios were calculated for control and treated cells.

[3] = test system: HEK293 (human embryonic kidney) cells; assay: MTT antiproliferative assay on HEK cells; type: cell-based; details: for IC50: 72 h of treatment, MTT assay, mean ± SD of three experiments, read-out: Half-maximal inhibitory concentration (IC50), HEK293; for IC50 for HEK higher than for A2780 (fold): ratio of 72 h IC50 HEK / A2780
Procedure: as §3

A2780 cells = assay: Annexin V/propidium iodide flow cytometry (apoptosis); type: cell-based, human; details: A2780, 72 h exposure at IC50 dose
Procedure: The evaluation of cell death was carried out using the TACS annexin V/propidium iodide staining kit (Trevigen, Gaithersburg, MD, USA) according to the manufacturer’s instructions. […] After 72 h, controls and treated cells were trypsinized, washed with PBS buffer, and suspended in the staining solution for 15 min at room temperature in the dark. Cells were then washed and immediately analyzed by FACSCantoII flow cytometer (BD Biosciences, New Jersey, USA). Cells were gated and plotted on dot plots showing the distribution of annexin V-positive cells (early apoptotic cells) and annexin V/propidium iodide-positive cells (late apoptotic cells).

caspase-8 = assay: FAM-FLICA caspase-8 activation, flow cytometry; type: cell-based, human; details: A2780, 72 h at 72 h IC50 dose, compared to controls
Procedure: as §1

Bax = assay: Western blot of Bax content; type: cell-based, human; details: A2780, 48 h at 72 h IC50 dose, compared to controls
Procedure: as §2

[4] = test system: A2780 human ovarian cancer cell line; assay: MTT antiproliferative assay on A2780 cells; type: cell-based; details: for IC50: 72 h of treatment, MTT assay, mean ± SD of three experiments, read-out: Half-maximal inhibitory concentration (IC50), A2780; for cytotoxic potency on A2780 higher than that of AuL12 (fold): from 72 h IC50 values on A2780
Procedure: as §3
The effects of these 72 h exposure IC50 doses on A2780 cell viability were also evaluated using an MTT time course assay at 12, 24, 48, and 72 h of drug exposure. The experimental protocol described above was applied.

Row | Structure (SMILES) | cells showing caspase-9 activation (caspase-9) | enhancement of phospho-ASK1 levels (phosphorylated-ASK1/total ASK1 ratio) (ASK1) | IC50 [1] [µM] | IC50 for PNT1 higher than for A2780 (fold) [1] | caspase-3 activation (fluorescence intensity) (caspase-3) | respiratory control ratio (RCR), complex I-driven [2] | IC50 [3] [µM] | IC50 for HEK higher than for A2780 (fold) [3] [fold] | increase of annexin V fluorescence intensity vs untreated control cells (A2780 cells) [fold] | cells showing caspase-8 activation (caspase-8) | increase of proapoptotic Bax protein (Bax) | IC50 [4] [µM] | cytotoxic potency on A2780 higher than that of AuL12 (fold) [4] [fold]
1 | Cc1ccc2ccc3ccc(C)[n+]4c3c2[n+]1[Au-]41[O][Au-]2([O]1)[n+]1c(C)ccc3ccc4ccc(C)[n+]2c4c31.F[P-](F)(F)(F)(F)F.F[P-](F)(F)(F)(F)F [Au2phen, ((2,9-dimethyl-1,10-phenanthroline)2Au2(µ-O)2)(PF6)2] | 60% | about 15% | 11.8 ± 0.25 | about 14 fold | ~ 40% | about 1.8 | 4.18 ± 0.05 | 5 | 6 | around 50% | about 29% | 0.8 ± 0.02 | 5
2 | CCOC(=O)CN(C)C1=[S+][Au-]([Br])([Br])[S]1 [AuL12, dibromo(ethylsarcosinedithiocarbamate)gold(III), reference compound] | ~ 30% | about 25% | 12.3 ± 0.17 | 3 fold | ~ 40% | 2.3 | 10.7 ± 0.36 | 2.7 | 5 | ~ 30% | ~34% | 4 ± 0.03 | 
3 | Cc1cccc2[n+]1[Au-]1([O][Au-]3([O]1)[n+]1c(C)cccc1-c1cccc(C)[n+]13)[n+]1c(C)cccc1-2.F[P-](F)(F)(F)(F)F.F[P-](F)(F)(F)(F)F [Auoxo6, ((6,6′-dimethyl-2,2′-bipyridine)2Au2(µ-O)2)(PF6)2] | 75% | about 23% | 18.4 ± 0.3 | ~16 fold | about 80% | 2.1 | 6.16 ± 0.04 | 5 | 10 | ~70% | ~20% | 1.14 ± 0.18 | 3.5
